Laboratory results published in PubChem BioAssay AID1963985 (Molecular Pharmacology Branch, DTP, NCI, 2024).

Tested on: 252836-082-R-J2-PDC tumor spheroids, viability
Experiment: Anticancer human tumor 252836-082-R-J2-PDC patient-derived head and neck squamous cell carcinoma cell line growth inhibition [PI3K]
Details: spheroids with HUVEC and MSC; for IC50: curve of first compound; for viability, T/C: stronger effect = lower value
Method in brief: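 Three cell types, namely tumor cells, endothelial cells and mesenchymal stem cells, formed each spheroid. Combinations with four PI3K inhibitors were screened at clinically achievable concentrations decreasing by half-log, and spheroid viability was recorded.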

[1] = second compound 0.00316 µM, first compound 0.0316 µM
[2] = second compound 0.00316 µM, first compound 0.1 µM
[3] = second compound 0.01 µM, first compound 0.0316 µM
[4] = second compound 0.01 µM, first compound 0.1 µM
[5] = second compound 0.0316 µM, first compound 0.0316 µM
[6] = second compound 0.0316 µM, first compound 0.1 µM
[7] = second compound 0.1 µM, first compound 0.0316 µM
[8] = second compound 0.1 µM, first compound 0.1 µM
[9] = second compound 0.316 µM, first compound 0.0316 µM
[10] = second compound 0.316 µM, first compound 0.1 µM
[11] = second compound 1 µM, first compound 0.0316 µM
[12] = second compound 1 µM, first compound 0.1 µM
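Note: spheroids exposed to agents for seven days before readout.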
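Throughout, for viability, T/C: percent of vehicle DMSO control viability so 100% = untreated growth.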

SMILES: C[C@@H](NC(=O)c1ncnc(N)c1Cl)c1ncc(C(=O)Nc2cc(C(F)(F)F)c(Cl)cn2)s1 + COc1c(OCCCN2CCOCC2)ccc2c3n(c(=NC(=O)c4cnc(N)nc4)nc12)CCN3
- IC50 (second compound 0.00316 µM): > 10 µM
- IC50 (second compound 0.01 µM): > 10 µM
- IC50 (second compound 0.0316 µM): > 10 µM
- IC50 (second compound 0.1 µM): < 0.0316 µM
- IC50 (second compound 0.316 µM): < 0.0316 µM
- IC50 (second compound 1 µM): < 0.0316 µM
- viability, T/C [1]: 89.6%
- viability, T/C [2]: 77.8%
- viability, T/C (second compound 0.00316 µM, first compound 0.316 µM): 104%
- viability, T/C (second compound 0.00316 µM, first compound 1 µM): 84.7%
- viability, T/C (second compound 0.00316 µM, first compound 3.16 µM): 94.5%
- viability, T/C (second compound 0.00316 µM, first compound 10 µM): 85.8%
- viability, T/C [3]: 81%
- viability, T/C [4]: 71.4%
- viability, T/C (second compound 0.01 µM, first compound 0.316 µM): 79.5%
- viability, T/C (second compound 0.01 µM, first compound 1 µM): 77.5%
- viability, T/C (second compound 0.01 µM, first compound 3.16 µM): 72.4%
- viability, T/C (second compound 0.01 µM, first compound 10 µM): 84.2%
- viability, T/C [5]: 69.6%
- viability, T/C [6]: 66.1%
- viability, T/C (second compound 0.0316 µM, first compound 0.316 µM): 80.5%
- viability, T/C (second compound 0.0316 µM, first compound 1 µM): 56%
- viability, T/C (second compound 0.0316 µM, first compound 3.16 µM): 62.1%
- viability, T/C (second compound 0.0316 µM, first compound 10 µM): 59.6%
- viability, T/C [7]: 37.6%
- viability, T/C [8]: 39.1%
- viability, T/C (second compound 0.1 µM, first compound 0.316 µM): 39.9%
- viability, T/C (second compound 0.1 µM, first compound 1 µM): 37%
- viability, T/C (second compound 0.1 µM, first compound 3.16 µM): 43.3%
- viability, T/C (second compound 0.1 µM, first compound 10 µM): 32.1%
- viability, T/C [9]: 18.4%
- viability, T/C [10]: 16.6%
- viability, T/C (second compound 0.316 µM, first compound 0.316 µM): 21%
- viability, T/C (second compound 0.316 µM, first compound 1 µM): 17.7%
- viability, T/C (second compound 0.316 µM, first compound 3.16 µM): 17.2%
- viability, T/C (second compound 0.316 µM, first compound 10 µM): 9.8%
- viability, T/C [11]: 5.39%
- viability, T/C [12]: 5.07%
- viability, T/C (second compound 1 µM, first compound 0.316 µM): 5.62%
- viability, T/C (second compound 1 µM, first compound 1 µM): 6.77%
- viability, T/C (second compound 1 µM, first compound 3.16 µM): 5.91%
- viability, T/C (second compound 1 µM, first compound 10 µM): 1.42%

SMILES: CC(C)n1nc(-c2ccc3oc(N)nc3c2)c2c(N)ncnc21 + CC(Nc1ccc2c(c1)OCCn1cc(N3C(=O)OCC3C(F)F)nc1-2)C(N)=O
- IC50 (second compound 0.00316 µM): 0.0369 µM
- IC50 (second compound 0.01 µM): 0.0269 µM
- IC50 (second compound 0.0316 µM): 0.0224 µM
- IC50 (second compound 0.1 µM): 0.00942 µM
- IC50 (second compound 0.316 µM): 0.00407 µM
- IC50 (second compound 1 µM): < 0.000316 µM
- viability, T/C (second compound 0.00316 µM, first compound 0.000316 µM): 108%
- viability, T/C (second compound 0.00316 µM, first compound 0.001 µM): 81.8%
- viability, T/C (second compound 0.00316 µM, first compound 0.00316 µM): 79%
- viability, T/C (second compound 0.00316 µM, first compound 0.01 µM): 86%
- viability, T/C [1]: 51.1%
- viability, T/C [2]: 21.9%
- viability, T/C (second compound 0.01 µM, first compound 0.000316 µM): 94%
- viability, T/C (second compound 0.01 µM, first compound 0.001 µM): 81.1%
- viability, T/C (second compound 0.01 µM, first compound 0.00316 µM): 73.6%
- viability, T/C (second compound 0.01 µM, first compound 0.01 µM): 69.4%
- viability, T/C [3]: 47.7%
- viability, T/C [4]: 21.3%
- viability, T/C (second compound 0.0316 µM, first compound 0.000316 µM): 86.2%
- viability, T/C (second compound 0.0316 µM, first compound 0.001 µM): 77.4%
- viability, T/C (second compound 0.0316 µM, first compound 0.00316 µM): 80.7%
- viability, T/C (second compound 0.0316 µM, first compound 0.01 µM): 61.7%
- viability, T/C [5]: 44.8%
- viability, T/C [6]: 19.4%
- viability, T/C (second compound 0.1 µM, first compound 0.000316 µM): 78.2%
- viability, T/C (second compound 0.1 µM, first compound 0.001 µM): 65.1%
- viability, T/C (second compound 0.1 µM, first compound 0.00316 µM): 59.5%
- viability, T/C (second compound 0.1 µM, first compound 0.01 µM): 52.5%
- viability, T/C [7]: 35.2%
- viability, T/C [8]: 15.9%
- viability, T/C (second compound 0.316 µM, first compound 0.000316 µM): 55.1%
- viability, T/C (second compound 0.316 µM, first compound 0.001 µM): 52.3%
- viability, T/C (second compound 0.316 µM, first compound 0.00316 µM): 56.6%
- viability, T/C (second compound 0.316 µM, first compound 0.01 µM): 40%
- viability, T/C [9]: 28.9%
- viability, T/C [10]: 16.6%
- viability, T/C (second compound 1 µM, first compound 0.000316 µM): 46.4%
- viability, T/C (second compound 1 µM, first compound 0.001 µM): 52.5%
- viability, T/C (second compound 1 µM, first compound 0.00316 µM): 42.4%
- viability, T/C (second compound 1 µM, first compound 0.01 µM): 37.8%
- viability, T/C [11]: 26.6%
- viability, T/C [12]: 11.9%
